Results reported in patent US20100035856A1, “Beta-LACTAM-CONTAINING FORMULATIONS WITH INCREASED STABILITY IN AQUEOUS SOLUTION” (BAYER ANIMAL HEALTH GMBH, priority 2007, published 2010).

Assay: Stability of amoxicillin/K-clavulanate 4:1 in aqueous solution with urea
Type: physicochemical

Which “loss of active ingredient” value (amoxicillin in aqueous amoxiclav solution containing 40% urea, within 24 hours) does the source give for `CC1(C)S[C@@H]2[C@H](NC(=O)[C@H](N)c3ccc(O)cc3)C(=O)N2[C@H]1C(=O)O` [amoxicillin] here?
Its value is “less than 10%”.

Which “stability of clavulanic acid, effect of urea” value (aqueous amoxiclav solution with urea (FIG. 4)) does the source give for `O=C(O)[C@H]1/C(=C/CO)O[C@@H]2CC(=O)N21` [clavulanic acid] here?
The value was “not adversely affected at all”.
